Data on 4 compounds can be found in paper PMC9386806 (ACS Omega, 2022).

SMILES strings stand for the structures.

As usually defined, the IC50 is the concentration needed to halve the response being measured.

The assay concerns the target hCA II (Homo sapiens, UniProt P00918). The assay is described as follows: biochemical.

On to `COC(=O)C1=C(N)Oc2c(c(=O)oc3ccc(C)cc23)C1c1ccccc1OCc1cc2ccccc2oc1=O` (stereo not shown) [Compound 12e, 2-Amino-9-methyl-5-oxo-4-[2-(2-oxo-2H-chromen-3-ylmethoxy)-phenyl]-4H,5H-pyrano[3,2-c]chromene-3-carboxylic Acid Methyl Ester], for which it took 21.8 ± 3.32 µM to reach half-maximal inhibition (IC50). With `N#CC1=C(N)Oc2c(c(=O)oc3cc(O)ccc23)C1c1ccccc1OCc1cc2ccccc2oc1=O` (stereo not shown) [Compound 12h, 2-Amino-8-hydroxy-5-oxo-4-[2-(2-oxo-2H-chromen-3-ylmethoxy)-phenyl]-4H,5H-pyrano[3,2-c]chromene-3-carbonitrile] the figure was 4.55 ± 0.22 µM. Take `COC(=O)C1=C(N)Oc2c(c(=O)oc3cc(O)ccc23)C1c1ccccc1OCc1cc2ccccc2oc1=O` (stereo not shown) [Compound 12i, 2-Amino-8-hydroxy-5-oxo-4-[2-(2-oxo-2H-chromen-3-ylmethoxy)-phenyl]-4H,5H-pyrano[3,2-c]chromene-3-carboxylic Acid Methyl Ester]: half-maximal inhibition (IC50) was put at 4.91 ± 1.13 µM. For the compound `CCOC(=O)C1=C(N)Oc2c(c(=O)oc3cc(O)ccc23)C1c1ccccc1OCc1cc2ccccc2oc1=O` (stereo not shown) [Compound 12j, 2-Amino-8-hydroxy-5-oxo-4-[2-(2-oxo-2H-chromen-3-ylmethoxy)-phenyl]-4H,5H-pyrano[3,2-c]chromene-3-carboxylic Acid Ethyl Ester], the IC50 was 7.78 ± 0.08 µM.
